The results in this text go back to ChEMBL document CHEMBL1153969, “N-Hydroxy-(4-oxime)-cinnamide: a versatile scaffold for the synthesis of novel histone deacetylase [correction of deacetilase] (HDAC) inhibitors” (Bioorg Med Chem Lett, 2009).

The IC50 is the concentration that gives 50% inhibition.

The subject of one assay is NCI-H460. Nature of the assay: Cytotoxicity against human NCI-H460 cells after 48 hrs by SRB assay. The class given is functional, cell-based. The note with it: NCI-H460, 48 h. (Sulforhodamine B stains cellular protein and so reports cell mass.)
A further assay relates to HCT-116. Description: Cytotoxicity against human HCT116 cells after 48 hrs by SRB assay. Format: functional, cell-based. Particulars: HCT-116, 48 h.
Another assay addresses Histone deacetylase 2 (Homo sapiens, UniProt Q92769). Nature of the assay: Inhibition of human HDAC2.
The next assay deals with Histone deacetylase 3 (Homo sapiens, UniProt O15379). Description: Inhibition of human HDAC3.
Sequence of Histone deacetylase 3 (O15379 whole entry): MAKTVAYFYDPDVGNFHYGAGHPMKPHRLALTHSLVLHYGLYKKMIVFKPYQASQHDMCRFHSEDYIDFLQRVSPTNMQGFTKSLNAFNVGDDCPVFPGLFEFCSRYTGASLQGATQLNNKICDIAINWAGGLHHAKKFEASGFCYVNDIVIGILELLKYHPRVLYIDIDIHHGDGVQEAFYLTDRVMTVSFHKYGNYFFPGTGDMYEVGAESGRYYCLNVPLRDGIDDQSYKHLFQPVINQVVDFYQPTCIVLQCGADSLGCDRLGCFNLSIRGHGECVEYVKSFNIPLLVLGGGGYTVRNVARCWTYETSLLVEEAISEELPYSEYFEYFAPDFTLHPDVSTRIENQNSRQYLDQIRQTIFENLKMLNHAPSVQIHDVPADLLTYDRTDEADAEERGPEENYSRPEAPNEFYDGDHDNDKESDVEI
The target of assay [1] is T1, Protein deacetylase HDAC6 (Homo sapiens, UniProt Q9UBN7).
T1 sequence (Q9UBN7 whole entry): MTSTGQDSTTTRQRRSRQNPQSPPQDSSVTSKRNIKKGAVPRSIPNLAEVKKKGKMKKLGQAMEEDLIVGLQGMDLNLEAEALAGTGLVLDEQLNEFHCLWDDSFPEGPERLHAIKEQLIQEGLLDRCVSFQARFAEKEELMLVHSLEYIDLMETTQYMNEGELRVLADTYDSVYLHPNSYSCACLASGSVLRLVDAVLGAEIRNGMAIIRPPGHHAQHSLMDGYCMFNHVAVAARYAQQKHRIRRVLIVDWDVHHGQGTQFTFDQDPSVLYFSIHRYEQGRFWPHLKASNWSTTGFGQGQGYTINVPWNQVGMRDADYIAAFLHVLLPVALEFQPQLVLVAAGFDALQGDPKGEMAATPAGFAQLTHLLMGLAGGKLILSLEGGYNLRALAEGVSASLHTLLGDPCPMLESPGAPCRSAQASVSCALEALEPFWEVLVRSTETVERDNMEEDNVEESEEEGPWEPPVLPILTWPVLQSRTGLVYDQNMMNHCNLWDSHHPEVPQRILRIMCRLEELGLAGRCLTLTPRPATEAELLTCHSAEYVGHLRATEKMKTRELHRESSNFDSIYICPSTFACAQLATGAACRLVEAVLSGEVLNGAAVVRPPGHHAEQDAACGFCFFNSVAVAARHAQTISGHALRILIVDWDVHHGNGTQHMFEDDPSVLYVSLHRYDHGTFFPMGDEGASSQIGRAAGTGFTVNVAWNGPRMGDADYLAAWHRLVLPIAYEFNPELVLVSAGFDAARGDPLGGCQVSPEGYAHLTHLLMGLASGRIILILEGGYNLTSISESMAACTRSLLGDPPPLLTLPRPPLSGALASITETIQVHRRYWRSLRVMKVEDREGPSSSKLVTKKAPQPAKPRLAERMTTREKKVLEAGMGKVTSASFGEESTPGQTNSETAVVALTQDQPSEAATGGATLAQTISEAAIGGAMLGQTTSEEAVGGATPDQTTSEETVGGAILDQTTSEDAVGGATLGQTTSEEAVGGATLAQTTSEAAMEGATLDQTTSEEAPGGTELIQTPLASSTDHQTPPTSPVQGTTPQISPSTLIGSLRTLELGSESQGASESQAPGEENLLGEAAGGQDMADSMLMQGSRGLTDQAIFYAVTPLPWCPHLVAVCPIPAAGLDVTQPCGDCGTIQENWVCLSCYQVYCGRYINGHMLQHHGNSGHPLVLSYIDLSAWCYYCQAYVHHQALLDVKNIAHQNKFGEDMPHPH
Nature of the assay: Inhibition of human HDAC6.

A further assay deals with T2, Histone deacetylase 7 (Homo sapiens, UniProt Q8WUI4).
T2 sequence (Q8WUI4 whole entry): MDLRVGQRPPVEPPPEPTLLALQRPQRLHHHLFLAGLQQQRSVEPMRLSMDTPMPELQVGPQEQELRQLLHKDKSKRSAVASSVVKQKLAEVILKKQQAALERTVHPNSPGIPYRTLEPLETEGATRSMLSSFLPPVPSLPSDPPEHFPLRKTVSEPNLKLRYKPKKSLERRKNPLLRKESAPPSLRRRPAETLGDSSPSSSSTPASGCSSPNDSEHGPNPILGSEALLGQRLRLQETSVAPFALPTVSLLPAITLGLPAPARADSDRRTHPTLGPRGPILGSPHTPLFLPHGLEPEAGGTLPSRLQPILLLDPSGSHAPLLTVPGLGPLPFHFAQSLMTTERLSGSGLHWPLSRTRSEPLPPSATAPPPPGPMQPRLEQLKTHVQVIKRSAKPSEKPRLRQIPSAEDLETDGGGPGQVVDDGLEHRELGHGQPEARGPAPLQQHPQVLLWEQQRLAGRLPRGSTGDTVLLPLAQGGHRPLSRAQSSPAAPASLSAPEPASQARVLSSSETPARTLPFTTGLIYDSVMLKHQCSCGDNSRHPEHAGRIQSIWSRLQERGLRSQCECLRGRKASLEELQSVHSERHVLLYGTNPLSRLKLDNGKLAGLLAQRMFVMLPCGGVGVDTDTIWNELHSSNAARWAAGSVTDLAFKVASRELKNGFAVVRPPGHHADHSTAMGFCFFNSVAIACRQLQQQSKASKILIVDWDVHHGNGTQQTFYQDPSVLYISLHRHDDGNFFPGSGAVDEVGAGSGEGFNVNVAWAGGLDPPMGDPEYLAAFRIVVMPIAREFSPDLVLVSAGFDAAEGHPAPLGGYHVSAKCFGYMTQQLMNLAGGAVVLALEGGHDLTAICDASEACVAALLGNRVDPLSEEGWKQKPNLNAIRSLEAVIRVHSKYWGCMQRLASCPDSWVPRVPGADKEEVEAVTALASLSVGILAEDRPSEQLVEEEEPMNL
Nature of the assay: Inhibition of human HDAC7.

For assay [2], the target named is T3, Polyamine deacetylase HDAC10 (Homo sapiens, UniProt Q969S8).
T3 sequence (Q969S8 whole entry): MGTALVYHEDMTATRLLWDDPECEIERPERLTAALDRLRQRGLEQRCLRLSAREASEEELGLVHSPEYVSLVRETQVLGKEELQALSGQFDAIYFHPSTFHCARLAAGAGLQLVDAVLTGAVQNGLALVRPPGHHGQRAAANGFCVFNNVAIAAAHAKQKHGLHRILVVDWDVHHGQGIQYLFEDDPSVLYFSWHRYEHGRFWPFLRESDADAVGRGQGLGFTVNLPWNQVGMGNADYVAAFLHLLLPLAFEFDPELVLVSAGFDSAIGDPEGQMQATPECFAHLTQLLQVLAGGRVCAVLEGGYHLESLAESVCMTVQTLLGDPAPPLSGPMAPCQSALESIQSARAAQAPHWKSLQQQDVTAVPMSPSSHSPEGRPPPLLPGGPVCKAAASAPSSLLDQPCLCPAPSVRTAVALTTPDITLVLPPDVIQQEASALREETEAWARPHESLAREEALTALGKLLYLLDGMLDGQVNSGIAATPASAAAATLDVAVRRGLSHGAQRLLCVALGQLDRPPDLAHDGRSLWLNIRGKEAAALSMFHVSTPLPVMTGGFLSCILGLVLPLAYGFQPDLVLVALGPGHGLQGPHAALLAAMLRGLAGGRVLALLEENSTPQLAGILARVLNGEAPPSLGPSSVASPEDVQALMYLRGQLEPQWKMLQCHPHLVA
Description: Inhibition of human HDAC10.

For another assay, the target named is Histone deacetylase 4 (Homo sapiens, UniProt P56524).
Sequence of Histone deacetylase 4 (P56524 whole entry): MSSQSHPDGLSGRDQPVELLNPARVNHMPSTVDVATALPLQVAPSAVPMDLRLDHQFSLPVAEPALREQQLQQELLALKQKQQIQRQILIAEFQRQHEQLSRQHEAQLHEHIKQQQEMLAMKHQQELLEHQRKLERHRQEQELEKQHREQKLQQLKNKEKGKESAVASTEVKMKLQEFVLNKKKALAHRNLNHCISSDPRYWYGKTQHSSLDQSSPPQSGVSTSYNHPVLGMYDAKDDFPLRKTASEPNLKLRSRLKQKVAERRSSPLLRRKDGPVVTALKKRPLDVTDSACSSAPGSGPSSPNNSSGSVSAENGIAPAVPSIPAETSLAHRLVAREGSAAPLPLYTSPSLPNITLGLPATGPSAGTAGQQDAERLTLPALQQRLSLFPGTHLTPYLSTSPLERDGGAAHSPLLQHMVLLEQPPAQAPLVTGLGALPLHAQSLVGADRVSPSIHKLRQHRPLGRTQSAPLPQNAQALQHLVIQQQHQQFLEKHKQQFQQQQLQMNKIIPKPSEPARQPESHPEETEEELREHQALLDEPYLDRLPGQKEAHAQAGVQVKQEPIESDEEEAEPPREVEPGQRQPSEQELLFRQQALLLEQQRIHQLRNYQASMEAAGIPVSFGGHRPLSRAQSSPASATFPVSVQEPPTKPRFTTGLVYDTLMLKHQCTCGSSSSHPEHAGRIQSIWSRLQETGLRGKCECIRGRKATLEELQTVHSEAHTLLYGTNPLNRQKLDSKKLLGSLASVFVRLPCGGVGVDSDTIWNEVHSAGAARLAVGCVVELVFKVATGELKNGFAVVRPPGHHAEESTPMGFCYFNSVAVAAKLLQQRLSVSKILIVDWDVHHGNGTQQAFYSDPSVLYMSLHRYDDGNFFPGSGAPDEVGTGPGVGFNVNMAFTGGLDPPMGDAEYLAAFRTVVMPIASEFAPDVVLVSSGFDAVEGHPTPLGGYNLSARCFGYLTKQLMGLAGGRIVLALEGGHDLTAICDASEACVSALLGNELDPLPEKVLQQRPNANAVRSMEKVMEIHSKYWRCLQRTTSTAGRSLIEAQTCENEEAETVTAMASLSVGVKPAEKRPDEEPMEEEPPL

Molecules are shown by their SMILES.

Sequence of Histone deacetylase 2 (Q92769 whole entry): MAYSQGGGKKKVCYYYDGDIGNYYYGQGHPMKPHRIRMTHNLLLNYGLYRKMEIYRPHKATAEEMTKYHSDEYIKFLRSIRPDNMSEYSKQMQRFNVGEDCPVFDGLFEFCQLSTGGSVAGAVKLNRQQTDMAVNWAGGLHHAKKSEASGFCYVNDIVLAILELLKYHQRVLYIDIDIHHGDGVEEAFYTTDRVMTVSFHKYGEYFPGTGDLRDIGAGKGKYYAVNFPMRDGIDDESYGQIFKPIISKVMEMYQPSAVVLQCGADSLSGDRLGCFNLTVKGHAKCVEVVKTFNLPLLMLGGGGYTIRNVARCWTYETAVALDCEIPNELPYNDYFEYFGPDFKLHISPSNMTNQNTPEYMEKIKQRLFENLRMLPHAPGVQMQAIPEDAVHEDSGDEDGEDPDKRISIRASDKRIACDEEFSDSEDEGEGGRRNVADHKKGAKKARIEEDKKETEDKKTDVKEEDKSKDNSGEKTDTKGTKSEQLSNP
Description for Histone deacetylase 4: Inhibition of human HDAC4

In the case of `O=C(/C=C/c1ccc(/C=N/OCc2ccc([N+](=O)[O-])cc2)cc1)NO`, the IC50 in the assay with NCI-H460 was found to be 2600 nM; in the assay on HCT-116, 1200 nM; on Histone deacetylase 2, 2670 nM; on Histone deacetylase 3, 160 nM; in assay [1] it was 124 nM; against Histone deacetylase 7 it was 2300 nM. The 50% inhibitory concentration (IC50) in assay [2] came out at 1580 nM; against Histone deacetylase 4, 2040 nM.
